Molecules are shown by their SMILES. Calls of active or inactive are those of the source. No cut-off for these calls is given here.

As usually defined, the IC50 is the point on the concentration scale where inhibition reaches its midpoint. Broadly, the inhibition is the share of the control response that was lost under treatment.

The target of test [1] is T1, Prostaglandin E synthase (Homo sapiens) (UniProt O14684).
T1 sequence (whole entry): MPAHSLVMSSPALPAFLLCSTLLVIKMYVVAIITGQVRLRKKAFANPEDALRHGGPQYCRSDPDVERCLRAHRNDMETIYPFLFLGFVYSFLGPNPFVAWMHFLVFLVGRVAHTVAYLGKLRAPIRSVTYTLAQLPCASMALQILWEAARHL
The test is described as follows: Inhibition of human mPGES-1 assessed as enzyme remaining activity at 10 uM relative to control.

Test [2] has as its target T2, Polyunsaturated fatty acid 5-lipoxygenase (Homo sapiens) (UniProt P09917).
T2 sequence (whole entry): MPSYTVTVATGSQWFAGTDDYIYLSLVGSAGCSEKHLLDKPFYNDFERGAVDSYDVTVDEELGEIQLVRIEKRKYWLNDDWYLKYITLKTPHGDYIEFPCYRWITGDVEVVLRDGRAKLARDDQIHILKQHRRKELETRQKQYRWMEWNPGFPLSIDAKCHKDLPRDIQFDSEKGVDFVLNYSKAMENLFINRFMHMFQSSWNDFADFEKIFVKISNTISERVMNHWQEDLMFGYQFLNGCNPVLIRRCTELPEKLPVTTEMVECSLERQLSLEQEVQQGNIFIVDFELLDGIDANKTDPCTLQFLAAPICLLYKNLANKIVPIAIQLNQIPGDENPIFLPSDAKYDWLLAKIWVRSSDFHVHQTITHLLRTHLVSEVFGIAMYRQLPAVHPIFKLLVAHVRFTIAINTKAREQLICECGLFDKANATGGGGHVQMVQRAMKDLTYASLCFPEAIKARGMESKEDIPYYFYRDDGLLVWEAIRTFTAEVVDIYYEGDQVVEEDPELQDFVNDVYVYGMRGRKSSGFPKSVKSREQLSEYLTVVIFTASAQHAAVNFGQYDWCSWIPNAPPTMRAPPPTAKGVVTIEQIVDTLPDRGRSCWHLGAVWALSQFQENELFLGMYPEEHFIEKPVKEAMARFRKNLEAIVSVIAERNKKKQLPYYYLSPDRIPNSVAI
Description: Inhibition of 5-LOX in human Neutrophil assessed as enzyme remaining activity at 10 uM using arachidonic acid as substrate preincubated with compound for 15 mins followed by substrate and A23187 addition measured after 10 mins by RP-HPLC analysis relative to control. It is filed as cell-based. The settings on record: time 25.0 min.

Test [3] deals with T3, Bifunctional epoxide hydrolase 2 (Homo sapiens) (UniProt P34913).
T3 sequence (whole entry): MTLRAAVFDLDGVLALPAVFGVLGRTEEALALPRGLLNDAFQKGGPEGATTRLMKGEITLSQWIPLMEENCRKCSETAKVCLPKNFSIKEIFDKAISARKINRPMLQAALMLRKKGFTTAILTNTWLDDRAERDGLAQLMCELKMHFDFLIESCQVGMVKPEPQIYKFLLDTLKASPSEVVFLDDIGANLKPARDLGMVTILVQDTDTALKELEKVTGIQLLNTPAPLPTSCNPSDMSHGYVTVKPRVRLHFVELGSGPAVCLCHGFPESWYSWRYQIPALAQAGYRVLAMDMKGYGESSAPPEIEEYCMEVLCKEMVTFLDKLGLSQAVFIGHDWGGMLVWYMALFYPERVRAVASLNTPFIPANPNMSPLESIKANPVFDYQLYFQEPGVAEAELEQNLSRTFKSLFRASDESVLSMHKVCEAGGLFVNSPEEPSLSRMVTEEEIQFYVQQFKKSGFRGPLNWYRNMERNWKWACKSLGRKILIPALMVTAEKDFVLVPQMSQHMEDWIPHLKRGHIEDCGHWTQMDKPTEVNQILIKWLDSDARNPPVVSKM
The test is described as follows: Inhibition of human sEH assessed as enzyme remaining activity at 10 uM relative to control.

For test [4], the target named is T2, Polyunsaturated fatty acid 5-lipoxygenase (Homo sapiens). The test is described as follows: Inhibition of human recombinant 5-LOX expressed in Escherichia coli BL21(DE3) assessed as enzyme remaining activity at 10 uM using arachidonic acid as substrate preincubated with compound for 15 mins followed by substrate and CaCl2 addition measured after 10 mins by RP-HPLC analysis relative to control. The settings on record: time 25.0 min.

The target is the same in test [5]. Description: Inhibition of 5-LOX in human Neutrophil assessed as enzyme remaining activity at 10 uM preincubated with compound for 15 mins followed by A23187 addition measured after 10 mins by RP-HPLC analysis relative to control. Particulars: time 25.0 min. It counts as cell-based.
Test [6] can be described thus: Antioxidant activity assessed as DPPH radical scavenging activity at 1 uM incubated for 30 min by DPPH assay. It is filed as functional. A general note: DPPH is a stable violet radical that fades when it is reduced.
For test [7], the target named is T4, Polyunsaturated fatty acid 5-lipoxygenase (Homo sapiens, UniProt P09917).
T4 sequence (P09917 whole entry): T2 sequence (whole entry)
The test is described as follows: Inhibition of human recombinant 5-LOX expressed in Escherichia coli BL21(DE3) using arachidonic acid as substrate preincubated with compound for 15 mins followed by substrate and CaCl2 addition measured after 10 mins by RP-HPLC analysis.

Test [8] has as its system Neutrophil. Description: Inhibition of ROS production in PMA-induced human Neutrophil cells at 1 uM incubated for 10 mins by DCFH-DA dye based fluorometric assay. It is filed as functional, cell-based.
Test [9] addresses T2, Polyunsaturated fatty acid 5-lipoxygenase (Homo sapiens). The test is described as follows: Inhibition of 5-LOX in human Neutrophil at 10 uM preincubated with compound for 15 mins followed by A23187 addition measured after 10 mins by RP-HPLC analysis relative to control. It is filed as cell-based. Particulars: time 25.0 min.
For test [10], the target named is T3, Bifunctional epoxide hydrolase 2 (Homo sapiens). Description: Inhibition of human sEH at 10 uM relative to control.
Test [11] concerns Neutrophil. Description: Inhibition of ROS production in PMA-induced human Neutrophil cells at 10 uM incubated for 10 mins by DCFH-DA dye based fluorometric assay. It counts as functional, cell-based.
Test [12] has as its target T2, Polyunsaturated fatty acid 5-lipoxygenase (Homo sapiens). Description: Inhibition of 5-LOX in human Neutrophil at 10 uM using arachidonic acid as substrate preincubated with compound for 15 mins followed by substrate and A23187 addition measured after 10 mins by RP-HPLC analysis relative to control. It counts as cell-based. The settings on record: time 25.0 min.
A short description of test [13]: Antioxidant activity assessed as DPPH radical scavenging activity at 10 uM incubated for 30 min by DPPH assay. It is filed as functional.
The target of test [14] is T1, Prostaglandin E synthase (Homo sapiens). The test is described as follows: Inhibition of human mPGES-1 at 10 uM relative to control.
The target in test [15] is T4, Polyunsaturated fatty acid 5-lipoxygenase. The test is described as follows: Inhibition of 5-LOX in human Neutrophil using arachidonic acid as substrate preincubated with compound for 15 mins followed by substrate and A23187 addition measured after 10 mins by RP-HPLC analysis. It counts as cell-based.
The target of test [16] is T2, Polyunsaturated fatty acid 5-lipoxygenase (Homo sapiens). The test is described as follows: Inhibition of 5-LOX in human Neutrophil assessed as enzyme remaining activity at 30 nM using arachidonic acid as substrate preincubated with compound for 15 mins followed by substrate and A23187 addition measured after 10 mins by RP-HPLC analysis relative to control. It is filed as cell-based. Particulars: time 25.0 min.

For test [17] the target is unchanged. The test is described as follows: Inhibition of 5-LOX in human Neutrophil assessed as enzyme remaining activity at 30 nM preincubated with compound for 15 mins followed by A23187 addition measured after 10 mins by RP-HPLC analysis relative to control. It counts as cell-based. Particulars: time 25.0 min.

`COC(=O)c1ccc(NCc2cc(O)c3ccccc3c2O)cc1`: the Activity in [1] was found to be 50.4%; in [2] it was 1.9%; in test [3], 84.4%; in test [4], 6.1%; in test [5], 3.3%. For the same compound, the result in test [6] was inactive. Moreover, the IC50 is 1100 nM in [7] and 1000 nM in [15]. Moreover, the inhibition result in the test with Neutrophil [8] is “inactive”. Moreover, the inhibition in test [9] is above 50%; in test [10], above 35%; in [12], above 50%; in [14], below 40%. Besides, in the test with Neutrophil [11], the inhibition entry was “Active”. Further, the outcome in test [13] was Active.

Consider `CC(C)c1ccc2c(c1)c(SC(C)(C)C)c(CC(C)(C)C(=O)O)n2Cc1ccc(Cl)cc1`, for which the Activity stood at 45.8% in test [1], 7.8% in [16] and 1.5% in [17].
